The target in test [1] is Sigma non-opioid intracellular receptor 1 (Cavia porcellus, UniProt Q60492). In words: Displacement of [3H]-pentazocine from sigma1 receptor in guinea pig brain membranes after 120 mins by liquid scintillation counting. Format: cell membranes, Membrane. (In a radioligand displacement assay an active substance lowers the binding of a labelled ligand.)
In test [2] the target is T1, Sigma intracellular receptor 2 (Rattus norvegicus, UniProt Q5U3Y7).
T1 sequence (Q5U3Y7 whole entry): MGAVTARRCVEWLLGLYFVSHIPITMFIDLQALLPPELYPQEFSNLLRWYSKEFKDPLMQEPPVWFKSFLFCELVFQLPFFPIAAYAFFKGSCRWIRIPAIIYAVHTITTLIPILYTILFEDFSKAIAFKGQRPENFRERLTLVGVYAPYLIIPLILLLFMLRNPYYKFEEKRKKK
In words: Displacement of [3H]-DTG from sigma2 receptor in rat liver membranes after 120 mins by liquid scintillation counting. Format: cell membranes, Membrane.

The nature of test [3]: Displacement of [3H]-(+)-MK 801 from PCP binding site of NMDA receptor in pig brain cortex membranes after 120 mins by liquid scintillation spectrometry. Format: cell membranes, Sus scrofa.
For test [4], the target named is C-8 sterol isomerase ERG2 (Saccharomyces cerevisiae S288c) (UniProt P32352). In words: Inhibition of yeast sterol-delta8/7-isomerase at 50 uM.
Sequence of C-8 sterol isomerase ERG2 (Saccharomyces cerevisiae S288c) (P32352 whole entry, looked up): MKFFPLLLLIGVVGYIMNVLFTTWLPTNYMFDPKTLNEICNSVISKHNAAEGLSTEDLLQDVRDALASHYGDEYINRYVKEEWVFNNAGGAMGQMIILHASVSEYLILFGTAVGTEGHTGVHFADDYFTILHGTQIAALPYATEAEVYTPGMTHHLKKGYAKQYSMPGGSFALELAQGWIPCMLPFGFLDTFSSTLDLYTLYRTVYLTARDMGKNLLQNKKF
Test [5] has the same target. In words: Inhibition of yeast sterol-delta8/7-isomerase assessed as accumulation of cholesta-8-en-3beta-ol at 1 uM.
The target is the same in test [6]. In words: Inhibition of yeast sterol-delta8/7-isomerase assessed as accumulation of cholesta-8-en-3beta-ol at 50 uM.
The target is the same in test [7]. In words: Inhibition of yeast sterol-delta8/7-isomerase assessed as accumulation of cholesta-8,14-dien-3beta-ol at 1 uM.
For test [8] the target is unchanged. In words: Inhibition of yeast sterol-delta8/7-isomerase assessed as accumulation of cholesta-8,14-dien-3beta-ol at 50 uM.
For test [9] the target is unchanged. In words: Inhibition of yeast sterol-delta8/7-isomerase assessed as accumulation of cholesta-7-en-3beta-ol at 1 uM.
For test [10] the target is unchanged. In words: Inhibition of yeast sterol-delta8/7-isomerase assessed as accumulation of cholesta-7-en-3beta-ol at 50 uM.
The target is the same in test [11]. In words: Inhibition of yeast sterol-delta8/7-isomerase assessed as accumulation of cholesta-5,7-dien-3beta-ol at 1 uM.
The target is the same in test [12]. In words: Inhibition of yeast sterol-delta8/7-isomerase assessed as accumulation of cholesta-5,7-dien-3beta-ol at 50 uM.
The species entered for test [13] is Sus scrofa. In words: Displacement of [3H]-(+)-MK 801 from PCP binding site of NMDA receptor in pig brain cortex membranes at 1 uM after 120 mins by liquid scintillation spectrometry. Format: cell membranes.
The target in test [14] is C-8 sterol isomerase ERG2 (Saccharomyces cerevisiae S288c) (UniProt P32352). In words: Inhibition of yeast sterol-delta8/7-isomerase at 1 uM.
Test [15] concerns HL-60. In words: Inhibition of cholesteriol biosynthesis in human HL60 cells assessed as incorporation of 2-13C-acetate. The class given is functional, cell-based.
Test [16] deals with T1, Sigma intracellular receptor 2. In words: Displacement of [3H]-DTG from sigma2 receptor in rat liver membranes in presence of (+)-pentazocine. Format: cell membranes, Membrane.

Active and inactive are the calls of the source. The calls are words filed in the database; no cut-off is given here.

The values below come from ChEMBL document CHEMBL4043136, “Chiral-pool synthesis of 1,2,4-trisubstituted 1,4-diazepanes as novel σ1 receptor ligands” (Bioorg Med Chem, 2017).

As a reminder, the Ki is the dissociation constant of the complex between target and ligand, obtained from inhibition or displacement. For orientation: IC50 means the concentration needed to halve the response being measured. A word on the inhibition: it is the drop in the measured response relative to a control, in per cent.

Sequence of Sigma non-opioid intracellular receptor 1 (Q60492 whole entry): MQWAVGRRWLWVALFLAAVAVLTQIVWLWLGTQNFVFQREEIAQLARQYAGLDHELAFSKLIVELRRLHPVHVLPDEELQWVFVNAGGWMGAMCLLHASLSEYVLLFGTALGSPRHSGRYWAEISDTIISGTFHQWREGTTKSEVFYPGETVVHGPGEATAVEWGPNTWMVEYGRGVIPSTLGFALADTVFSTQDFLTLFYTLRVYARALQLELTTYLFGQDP

In the case of `c1ccc(C[C@H]2CN(Cc3ccccc3)CCCN2Cc2ccccc2)cc1`, the figures for the inhibitory constant (Ki) in test [1] and in [2] were 71 nM and greater than 1000 nM, respectively. The same compound showed a 50% inhibitory concentration (IC50) in test [3] greater than 1000 nM. Besides, the inhibition entry in test [4], in test [5], in test [7], in [8], in [9] and in test [10] was “Active” throughout. In addition, the inhibition result in test [11] and in [12] was “Active” each time. In addition, the inhibition result in test [6] is “inactive”.

Consider `OC(CN1CCCN(Cc2ccccc2)[C@H](Cc2ccccc2)C1)c1ccccc1` (stereo partly drawn), for which the inhibition constant Ki in test [1] is 51 nM; in test [2] it was greater than 1000 nM. The IC50 in test [3] was determined as 1000 nM. This compound gave an inhibition in test [13] of 50%.

On to `COc1ccc(CN2CCCN(Cc3ccccc3)[C@H](Cc3ccccc3)C2)cc1`, for which the Ki in test [1] worked out at 42 nM; in test [2] it was 426 nM. The compound further yielded a 50% inhibitory concentration (IC50) in test [3] greater than 1000 nM. In addition, the inhibition entry in [4], in [5], in test [7], in test [8], in test [9] and in test [10] was “Active” each time. In addition, the inhibition result in test [11] and in [12] was “Active” each time. The inhibition entry in test [6] was “inactive”.

As to `CCCCN1CCCN(Cc2ccccc2)[C@@H](Cc2ccccc2)C1`, the figures for the Ki in test [1] and in [2] were 3.7 nM and 238 nM, respectively. The IC50 was greater than 1000 nM in [3] and 742 nM in [15]. In addition, the inhibition entry in test [14], in test [7], in test [8], in test [9], in test [10] and in [11] was “Active” each time. In addition, the inhibition result in test [12] was “Active”. The inhibition result in [5] and in [6] was “inactive” throughout.

On to `COc1cccc2c1CCCC2CCCN1CCN(C2CCCCC2)CC1` (stereo not drawn), for which the Ki in [16] amounted to 0.34 nM.

With `C[C@@H]1CN(CCCCc2ccccc2)CCCN1Cc1ccccc1`, the inhibition constant (Ki) in [1] turned out to be 0.83 nM; in test [2], 71 nM. The compound also showed a half-inhibitory concentration (IC50) in test [3] greater than 1000 nM. Moreover, the inhibition result in test [5], in test [9], in test [10], in test [11] and in test [12] was “Active” in each case. For the same compound, the inhibition entry in [6], in [7] and in test [8] was “inactive” each time.

For `CCCCN1CCCN(Cc2ccccc2)[C@H](C)C1`, the Ki in test [1] is 0.37 nM; in test [2], 372 nM. In test [3], this compound gave an IC50 greater than 1000 nM. Also, the inhibition entry in test [5], in test [7], in test [9], in test [10] and in [12] was “Active” in each case. Moreover, the inhibition entry in test [6], in [8] and in [11] was “inactive” each time.

Turning to `c1ccc(CCN2CCCN(Cc3ccccc3)[C@@H](Cc3ccccc3)C2)cc1`, the inhibitory constant (Ki) in [1] was found to be 40 nM; in [2] it was 426 nM. The concentration for half-maximal inhibition (IC50) in [3] was greater than 1000 nM. Also, the inhibition entry in test [4], in [5], in test [6], in test [7], in test [8] and in test [9] was “Active” in each case. For the same compound, the inhibition result in test [10], in test [11] and in test [12] was “Active” throughout.

`c1ccc(C[C@@H]2CNCCCN2Cc2ccccc2)cc1`: the Ki in test [1] and in test [2] was greater than 1000 nM each time. This compound had a half-maximal inhibitory concentration (IC50) in [3] greater than 1000 nM. Further, the inhibition entry in test [5], in test [7], in test [8], in [9], in [10] and in [11] was “Active” in each case. The inhibition result in [12] is “Active”. Further, the inhibition result in [6] was “inactive”.

For `OCC(c1ccccc1)N1CCCN(Cc2ccccc2)[C@H](Cc2ccccc2)C1` (stereo partly drawn), the inhibition constant Ki in test [1] is 27 nM; in test [2], greater than 1000 nM. This compound displayed a half-maximal inhibitory concentration (IC50) in test [3] of 1000 nM. For the same compound, in [13], the inhibition stood at 50%.

Turning to `c1ccc(C[C@@H]2CN(Cc3ccccc3)CCCN2Cc2ccccc2)cc1`, the Ki turned out to be 80 nM in test [1] and 514 nM in test [2]. In test [3], this compound came in with a 50% inhibitory concentration (IC50) greater than 1000 nM. The inhibition entry in test [4], in test [5], in test [6], in test [7], in [8] and in test [9] was “Active” each time. Besides, the inhibition result in [10], in test [11] and in [12] was “Active” each time.

Turning to `c1ccc(CCCN2CCCN(Cc3ccccc3)[C@H](Cc3ccccc3)C2)cc1`, the Ki in test [1] is 25 nM; in test [2], 300 nM. In test [3], this compound showed an IC50 greater than 1000 nM. Moreover, the inhibition entry in test [5], in [6], in test [7], in test [8], in [9] and in test [10] was “Active” throughout. Also, the inhibition result in test [12] is “Active”. Further, in [11], the inhibition result is “inactive”.

In the case of `CC(C)[C@H]1CN(CC2CCCCC2)CCCN1Cc1ccccc1`, the Ki in test [1] is 6 nM; in [2], greater than 1000 nM. The compound further returned a concentration for half-maximal inhibition (IC50) in test [3] greater than 1000 nM. The inhibition entry in [5] and in test [8] was “inactive” throughout. For the same compound, the inhibition result in test [6], in test [7], in [9], in test [10], in test [11] and in [12] was “Active” in each case.

As for `CCCCN1CCCN(Cc2ccccc2)[C@H](Cc2ccccc2)C1`, the Ki was determined as 3.9 nM in [1] and 169 nM in test [2]. Besides, in [3], the half-inhibitory concentration (IC50) was greater than 1000 nM. Besides, the inhibition entry in test [4], in [5], in test [7], in test [8], in [9] and in [10] was “Active” in each case. Further, the inhibition result in test [11] and in [12] was “Active” in each case. Also, the inhibition result in test [6] is “inactive”.

As to `c1ccc2c(c1)CCCC2CCCCN1CCN(C2CCCCC2)CC1` (stereo not drawn), the inhibition constant Ki in [16] was 14.6 nM.
